This note sets out measurements from publication PMC12040169 (PLOS Biology, 2025).

One may read the viability as a read-out of living cells in per cent, often relative to untreated cells.

A short description of this data set: in vitro. Conditions: human, hela cells, % viability.
On to `CCN1C(=O)N(CC)C2C1NC(=O)N2CCCC(=O)O` (stereo not shown) [CBK287131], for which the viability at 28.5 h, 10 µM amounted to 89.3%. Turning to `O=C(O)CC(Cc1ccccc1)(C(=O)O)c1ccccc1` (stereo not shown) [CBK287133], the viability at 28.5 h, 10 µM came out at 77.8%. Consider `O=C(O)C1(c2ccc(Br)cc2)CCCC1` [CBK287134], for which the viability at 28.5 h, 10 µM is 87.3%. To `CCC(Sc1nc(O)cc(-c2ccccc2)n1)C(=O)O` (stereo not shown) [CBK287135] belongs 87.8%; to `COc1cccc(NC(=O)c2ccc(NC(=O)CCCC(=O)O)cc2)c1` [CBK287137], 83.7%.

Turning to `O=C(O)c1cccc2c1C(=O)C(CC1CCCO1)N2` (stereo not shown) [CBK287140], the viability at 28.5 h, 10 µM was 90.6%. Regarding `CC(C)(CN1CCCC1)NC(=O)c1cc(Cl)c(Cl)cc1C(=O)O` [CBK287141], the viability at 28.5 h, 10 µM was 89%. To `CCOc1ccccc1N(CC(=O)O)S(=O)(=O)c1ccc(Cl)cc1` [CBK287144] belongs 110%. `Cc1ccc(CNC(Cc2c[nH]c3ccccc23)C(=O)O)cc1` (stereo not shown) [CBK287145]: the viability at 28.5 h, 10 µM came out at 106%.

For the compound `COc1ccc(C(=O)NCCCCCC(=O)O)cc1` [CBK287146], the viability at 28.5 h, 10 µM was found to be 109%. With `O=C(O)C1C2CC(c3ccccc3)C(C2)C1C(=O)O` (stereo not shown) [CBK287147], the viability at 28.5 h, 10 µM is 95.7%. To `O=C(O)c1ccc(-c2n[nH]c(=O)c3ccccc23)cc1` [CBK287148] belongs 108%. On to `CC(=O)Nc1ccc(N2CC(C(=O)O)CC2=O)cc1` (stereo not shown) [CBK287149], for which the viability at 28.5 h, 10 µM worked out at 87.1%. The same measure for `CC(Oc1ccccc1)C(=O)Nc1ccc(C(=O)O)cc1` (stereo not shown) [CBK287154]: 102%; for `Cc1ccc(C2c3c(oc4ccccc4c3=O)C(=O)N2CCCCCC(=O)O)cc1` (stereo not shown) [CBK287158]: 94.1%; for `CC1CCCN(c2nc3cc(C(=O)O)sc3[nH]2)C1` (stereo not shown) [CBK287159]: 88.8%.

For `O=C(O)c1ccc(-n2nnnc2SCc2ccccc2)cc1` [CBK287161], the viability at 28.5 h, 10 µM was 93.6%. As for `Cc1ccc(N2C(=O)c3ccc(C(=O)c4ccc(C(=O)O)cc4)cc3C2=O)cc1` [CBK287164], the viability at 28.5 h, 10 µM is 93.5%.

As to `O=C(O)CCC(=O)NCCc1ccc(Cl)cc1` [CBK287165], the viability at 28.5 h, 10 µM was 92.7%. Regarding `Cc1cc(C)cc(Nc2c(-c3ccc(C(=O)O)cc3)nc3cnccn23)c1` [CBK287166], the viability at 28.5 h, 10 µM was found to be 73.3%.

For the compound `COc1ccc(C2=NNC(c3ccc(C(=O)O)cc3)C2)cc1` (stereo not shown) [CBK287167], the viability at 28.5 h, 10 µM was found to be 78%. The same measure for `O=C(O)c1ccc(NC2CCS(=O)(=O)C2)cc1` (stereo not shown) [CBK287168]: 82.3%; for `CC1=CCC2C(=O)N(C(CC(C)C)C(=O)O)C(=O)C2C1` (stereo not shown) [CBK287172]: 94.6%.

On to `CCC(Sc1nc2ccc(F)cc2[nH]1)C(=O)O` (stereo not shown) [CBK287174], for which the viability at 28.5 h, 10 µM is 106%. The same measure for `O=C(O)CC1C(=O)NCCN1CCCc1ccccc1` (stereo not shown) [CBK287176]: 90.2%. To `CCC(C)(NC=O)C(=O)Nc1ccccc1C(=O)O` (stereo not shown) [CBK287177] belongs 97%; to `O=C(O)c1ccccc1C(=O)N1CCN(c2ccc([N+](=O)[O-])cc2)CC1` [CBK287181], 87.7%. On to `O=C(O)CC(C(=O)Nc1ccccc1)N1CCOCC1` (stereo not shown) [CBK287182], for which the viability at 28.5 h, 10 µM stood at 94.8%. The same measure for `O=C(O)C1CCC(N2C(=O)C3C4CCC(C4)C3C2=O)CC1` (stereo not shown) [CBK287183]: 82.2%; for `Cc1cccc(C)c1OCC(=O)NC(C)C(=O)O` (stereo not shown) [CBK287185]: 86.8%. Regarding `Nc1cccc(Oc2ccc3c(c2)C(=O)N(CCC(=O)O)C3=O)c1` [CBK287186], the viability at 28.5 h, 10 µM came out at 94.1%. Consider `N#Cc1ccc(CSc2ncccc2C(=O)O)cc1` [CBK287187], for which the viability at 28.5 h, 10 µM turned out to be 85.9%. The same measure for `O=C(O)CCCCN1C(=O)c2ccccc2S1(=O)=O` [CBK287189]: 84.8%. Take `O=C(/C=C/c1ccccc1)Nc1cccc(C(=O)O)c1` [CBK287193]: the viability at 28.5 h, 10 µM worked out at 94%. For `CC1CCN(S(=O)(=O)c2ccc(C(=O)O)cc2)CC1` [CBK287195], the viability at 28.5 h, 10 µM came out at 82.7%.

On to `CSc1ccc(C(NC(=O)OC(C)(C)C)C(=O)O)cc1` (stereo not shown) [CBK287196], for which the viability at 28.5 h, 10 µM is 80.4%. Regarding `O=C(O)C1CCN(Cc2cnnn2-c2ccccc2F)CC1` [CBK287197], the viability at 28.5 h, 10 µM stood at 82.1%. To `O=C1CC(c2ccc(F)cc2)Cc2[nH]c(=O)c(C(=O)O)cc21` (stereo not shown) [CBK287200] belongs 88.8%; to `O=C(O)c1ccc(S(=O)(=O)N2CCOCC2)cc1` [CBK287201], 82.2%.

As to `O=C(O)C1CCCCC1C(=O)NCCCCc1ccccc1` (stereo not shown) [CBK287205], the viability at 28.5 h, 10 µM was 83.2%. The same measure for `O=C(O)C1CCN(C2CC(=O)N(Cc3ccccc3)C2=O)CC1` (stereo not shown) [CBK287206]: 84.8%; for `Cc1cc(C)n(C(CC(=O)c2ccccc2)C(=O)O)n1` (stereo not shown) [CBK287209]: 90.8%; for `CN1C(=O)CC(Sc2ccccc2C(=O)O)C1=O` (stereo not shown) [CBK287213]: 89.5%. As to `O=C(O)c1ccc(CNCCc2ccccc2)cc1` [CBK287215], the viability at 28.5 h, 10 µM is 101%.

For the compound `Nc1cccc2c1C(=O)N(c1ccccc1C(=O)O)C2=O` [CBK287220], the viability at 28.5 h, 10 µM came out at 94%. For the compound `O=C(O)c1ccc(CNCCN2CCOCC2)cc1` [CBK287223], the viability at 28.5 h, 10 µM is 101%. To `COc1ccc(C(=O)CCN(C)CC(=O)O)cc1` [CBK287227] belongs 89.7%; to `O=C(O)c1ccc(-n2nnnc2SCc2ccc(F)cc2)cc1` [CBK287229], 95.8%. The same measure for `CCOc1ccc(N(Cc2ccc(C(=O)O)cc2)S(C)(=O)=O)cc1` [CBK287231]: 104%. To `CCN(c1ccccc1C(=O)O)S(=O)(=O)/C=C/c1ccccc1` [CBK287236] belongs 96.7%; to `Cc1c(NCc2ccc3c(c2)n(C)c(=O)n3C)cccc1C(=O)O` [CBK287237], 98.6%; to `O=C(CCc1c[nH]c2ccccc12)Nc1ccccc1C(=O)O` [CBK287242], 108%. Take `CN(C)S(=O)(=O)N(C)c1ccc(C(=O)O)cc1` [CBK287244]: the viability at 28.5 h, 10 µM was 105%. The same measure for `O=C(O)CCNC1CC(=O)N(Cc2ccccc2)C1=O` (stereo not shown) [CBK287246]: 99%. The same measure for `O=C(COc1cc(C(=O)O)nc2ccccc12)NCc1ccc(Cl)cc1` [CBK287247]: 92%; for `O=C(O)C1C2C=CC3(CN(C4CCCCC4)C(=O)C13)O2` (stereo not shown) [CBK287248]: 84.8%; for `O=C(O)c1cc(-c2c[nH]c3ccc(Cl)cc23)[nH]n1` [CBK287257]: 95%. To `O=C(CCCCCN1C(=O)c2ccccc2C1=O)Nc1cccc(C(=O)O)c1` [CBK287261] belongs 85.4%; to `Cc1ccc(/C=C/C(=O)O)cc1S(=O)(=O)NCC1CCCO1` (stereo not shown) [CBK287267], 82.5%. In the case of `COc1cc(-c2cc(C(=O)O)c3c(-c4ccc(C)cc4)n[nH]c3n2)ccc1O` [CBK287268], the viability at 28.5 h, 10 µM is 83.9%. On to `O=C(O)C1(NCc2ccccc2Cl)CCCCC1` [CBK287269], for which the viability at 28.5 h, 10 µM was determined as 78.9%. To `O=C(O)CCN1CCN(Cc2ccc(Cl)cc2)CC1` [CBK287271] belongs 87.5%; to `Cc1cnn(-c2cc(Oc3ccccc3)ncn2)c1` [CBK287276], 114%.

With `CN1CCc2c(sc3c2C(=O)NC(c2ccco2)N3)C1` (stereo not shown) [CBK287277], the viability at 28.5 h, 10 µM was found to be 99.4%. The same measure for `c1ccc(Nc2nc3nonc3n3cnnc23)cc1` [CBK287278]: 105%.

In the case of `c1ccc(Nc2c(-c3ccccc3)nc3[nH]cnn23)cc1` [CBK287284], the viability at 28.5 h, 10 µM is 89.4%. For `Cc1csc2ncc(C(=O)NCc3ccccc3)c(=O)n12` [CBK287290], the viability at 28.5 h, 10 µM was found to be 89.3%. `COc1ccc(CCNC(=O)c2cnc3scc(C)n3c2=O)cc1` [CBK287291]: the viability at 28.5 h, 10 µM came to 103%. The same measure for `COc1ccccc1CNC(=O)c1cnc2scc(C)n2c1=O` [CBK287293]: 102%; for `Cc1ccc(-n2c(=O)[nH]c3c(C(N)=O)nc(CC(C)C)nc32)cc1` [CBK287294]: 102%; for `COc1cc(C(=O)Nc2nc3c(s2)CC(C)CC3)cc(OC)c1OC` (stereo not shown) [CBK287299]: 107%. Turning to `Cc1cccc2sc(NC(=O)c3ccccc3)nc12` [CBK287300], the viability at 28.5 h, 10 µM turned out to be 102%. On to `COc1cc(C(=O)Nc2nc3c(C)cccc3s2)cc(OC)c1OC` [CBK287302], for which the viability at 28.5 h, 10 µM stood at 98.5%. As to `COc1ccccc1C(=O)Nc1nc2ccc(NC(C)=O)cc2s1` [CBK287303], the viability at 28.5 h, 10 µM was found to be 88.3%.

For `CC(=O)Nc1ccc2nc(NC(=O)c3ccc(C)cc3)sc2c1` [CBK287304], the viability at 28.5 h, 10 µM is 103%. Take `CC(=O)Nc1ccc2nc(NC(=O)c3ccc(C#N)cc3)sc2c1` [CBK287309]: the viability at 28.5 h, 10 µM is 92.4%. `CC(=O)c1sc(NC(=O)c2ccccc2)nc1-c1ccccc1` [CBK287315]: the viability at 28.5 h, 10 µM was 87.8%.

For `COc1ccc2nc(NC(=O)c3ccc(Br)s3)sc2c1` [CBK287316], the viability at 28.5 h, 10 µM stood at 92.8%. To `CC1(C)CC(=O)c2sc(NC(=O)Nc3ccccc3)nc2C1` [CBK287319] belongs 104%; to `N#Cc1ccc(-c2csc(NC(=O)c3ccc(Cl)s3)n2)cc1` [CBK287321], 100%; to `Cc1cccc(C(=O)Nc2nc3ccc(S(C)(=O)=O)cc3s2)c1` [CBK287323], 89.8%. Take `CCC(=O)Nc1sc2c(c1-c1nc3ccccc3s1)CCCC2` [CBK287324]: the viability at 28.5 h, 10 µM turned out to be 91.7%. The same measure for `COc1ccc(C(=O)Nc2nc(-c3ccc(OC)cc3)cs2)cc1` [CBK287325]: 99.2%; for `O=C(Nc1nc2c(s1)CCCC2)c1ccccc1` [CBK287326]: 82.9%. To `O=C(Nc1nc(-c2cccs2)cs1)c1ccc(F)cc1` [CBK287327] belongs 86.7%.
